In patent US11866458B2, “Panaxadiol glycoside derivative and preparation method and application thereof” (SUZHOU JI ER BIOLOGICAL MEDICINE CO., LTD., priority 2018, dated 2024):

Assays:
[1] = system: mouse asthma model induced by OVA; assay: Asthma induced by ovalbumin in Balb/c mice: IgE level in serum by ELISA; format: in vivo; conditions: oral; for content of IgE in mice serum (conclusion in words): model of mouse asthma induced by OVA, samples; for therapeutic effect on bronchial asthma induced by OVA: mouse
[2] = system: COPD rats induced by smoke exposure; assay: COPD induced by smoke exposure in rats: lung function FEV0.2/FVC; format: in vivo, Wistar rats; conditions: for FEV2/FVC % (FEV0.2/FVC %, forced expiratory index within 200 ms): 180 days; for effect in COPD rats compared with inhaled budesonide: high dose group, oral
[3] = system: inflammatory cells in bronchoalveolar lavage fluid of mice; assay: Determination of inflammatory cells in bronchoalveolar lavage fluid of mice (OVA asthma model); format: in vivo, BALB/C mice; set-up: unit not given here; conditions: oral
Procedure: 144 6-week-old BALB/C mice (18-20 g) were divided into 24 groups: control group, placebo group, dexamethasone group (3 mg/kg) and the drug groups. There were 6 in each group. The control group was given normal saline without any treatment. The other groups were sensitized by intraperitoneal injection of OVA 20 μg and aluminum hydroxide 200 μL PBC (2 mg, prepared into emulsion). […] On day 21, 22 and 23, the therapeutic agent (i.e. 3 mg/kg dexamethasone in the positive control group and oral administration in the drug group) was given orally. From day 17 to 23, PBS was given to the control group and placebo group respectively, PBS (without OVA) was given to the control group. On day 0 and day 14, the normal saline was nebulized for 30 minutes to remove the aluminum hydroxide on day 21, 22 and 23 See in Table 2.

[4] = Table 1-1 (1st time), 20 mg/kg, 24 hours after last OVA stimulation

SMILES | Concentration of IgE in serum [1, 4] [ng/mL] | Concentration of IgE in serum ([1]; Table 1-2 (2nd time), 15 mg/kg) [ng/mL] | Concentration of IgE in serum ([1]; Table 1-2 (2nd time), 30 mg/kg) [ng/mL] | Concentration of IgE in serum ([1]; Table 1-2 (2nd time), 60 mg/kg) [ng/mL] | content of IgE in mice serum (conclusion in words) [1] | therapeutic effect on bronchial asthma induced by OVA [1] | FEV2/FVC % (FEV0.2/FVC %, forced expiratory index within 200 ms) ([2]; 20 mg/kg oral) [%] | FEV2/FVC % (FEV0.2/FVC %, forced expiratory index within 200 ms) ([2]; 40 mg/kg oral) [%] | FEV2/FVC % (FEV0.2/FVC %, forced expiratory index within 200 ms) ([2]; 80 mg/kg oral) [%] | effect in COPD rats compared with inhaled budesonide [2] | Acidic cells in bronchoalveolar lavage fluid ([3]; 2 mg/kg) | Neutral cells in bronchoalveolar lavage fluid ([3]; 2 mg/kg) | Total inflammatory cells in bronchoalveolar lavage fluid ([3]; 2 mg/kg) | lymphocyte in bronchoalveolar lavage fluid ([3]; 2 mg/kg) | Acidic cells in bronchoalveolar lavage fluid ([3]; 20 mg/kg) | Neutral cells in bronchoalveolar lavage fluid ([3]; 20 mg/kg) | Total inflammatory cells in bronchoalveolar lavage fluid ([3]; 20 mg/kg) | lymphocyte in bronchoalveolar lavage fluid ([3]; 20 mg/kg) | Neutral cells in bronchoalveolar lavage fluid ([3]; 200 mg/kg) | Total inflammatory cells in bronchoalveolar lavage fluid ([3]; 200 mg/kg) | further results
CC(C)=CCC[C@](C)(O[C@@H]1OC[C@H](O)[C@H](O)C1O)C1CC[C@]2(C)C1[C@H](O)CC1[C@@]3(C)CC[C@H](O)C(C)(C)C3CC[C@]12C (stereo partly drawn) [IL, 20-O-α-L-arabinopyrauosyl-20(S)-panaxadiol glycoside] | 996.36 ± 102.45 | 1548.67 ± 190.16 | 1311.37 ± 154.37 | 1080.12 ± 131.23 | significantly reduce | obvious therapeutic effect | 71.15 ± 10.34 | 80.25 ± 8.79 | 89.62 ± 5.14 | superior to budesonide | – | – | – | – | – | – | – | – | – | – | –
COC(=O)C1O[C@@H](O[C@@](C)(CCC=C(C)C)C2CC[C@]3(C)C2C(=O)CC2[C@@]4(C)CC[C@H](OC(C)=O)C(C)(C)C4CC[C@]23C)C(O)[C@@H](O)[C@@H]1O (stereo partly drawn) [IA-1, 3-β-O-acetyl-20(S)—O-β-D-glucopyranuronic acid methyl ester dammarane-24-ene-12-one] | – | – | – | – | – | – | – | – | – | – | 26.55 ± 13.23 | 10.21 ± 6.07 | 43.42 ± 26.14 | 13.22 ± 8.27 | 13.26 ± 3.92 | 3.95 ± 2.41 | 28.11 ± 14.91 | 4.76 ± 3.18 | 3.75 ± 2.46 | 11.48 ± 4.39 | Acidic cells in bronchoalveolar lavage fluid ([3]; 200 mg/kg): 5.22 ± 3.31; lymphocyte in bronchoalveolar lavage fluid ([3]; 200 mg/kg): 3.82 ± 2.66
CC(C)=CCC[C@](C)(O[C@@H]1OC(CO)[C@@H](O)[C@H](O)C1O)C1CC[C@]2(C)C1C(=O)CC1[C@@]3(C)CC=CC(C)(C)C3CC[C@]12C (stereo partly drawn) [IH, 20(S)—O-β-D-glucopyranosyl dammarane-3, 24-diene-12-one] | 1191.08 ± 107.59 | 1682.40 ± 182.76 | 1311.37 ± 165.93 | 1150.59 ± 129.55 | significantly reduce | obvious therapeutic effect | 63.27 ± 14.65 | 73.59 ± 12.14 | 85.51 ± 15.27 | superior to budesonide | – | – | – | – | – | – | – | – | – | – | –
CC(=O)O[C@H]1CC[C@@]2(C)C(CC[C@]3(C)C2CC(=O)C2C([C@](C)(CCC=C(C)C)O[C@@H]4OC(CO)[C@@H](O)[C@H](O)C4O)CC[C@]23C)C1(C)C (stereo partly drawn) [IA, 3-O-acetyl-20(S)—O-β-D-glucopyranosyl Dammarane-24-ene-12-one] | – | – | – | – | – | – | – | – | – | – | 29.23 ± 10.29 | 10.40 ± 6.48 | 40.75 ± 26.14 | 11.81 ± 5.97 | 11.46 ± 4.12 | 6.38 ± 3.45 | 26.93 ± 15.01 | 8.84 ± 5.63 | 2.08 ± 2.01 | 10.85 ± 4.62 | lymphocyte in bronchoalveolar lavage fluid ([3]; 200 mg/kg): 4.27 ± 3.16
CCCC1O[C@@H]2C[C@H]3[C@@H]4CCC5=CC(=O)C=C[C@]5(C)[C@H]4[C@@H](O)C[C@]3(C)[C@]2(C(=O)CO)O1 (some centres unmarked) [Budesonide, reference compound] | – | – | – | – | – | – | – | – | – | – | – | – | – | – | – | – | – | – | – | – | FEV2/FVC % (FEV0.2/FVC %, forced expiratory index within 200 ms) ([2]; nebulized 0.25 mg/mL, 4 mL, 30 minutes): 79.47 ± 12.39 %
